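Abbreviation: GI50, concentration required for 50% inhibition of growth. TGI: concentration producing complete growth inhibition.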
Legend:
Test in all cases: inhibition of tumour cell growth, NCI panel, 384-well format
SNB-75 CNS = test system: SNB-75 CNS
NCI-H460 NSCLC = test system: NCI-H460 NSCLC
U251 glioblastoma = test system: U251 glioblastoma
HL-60(TB) leukemia = test system: HL-60(TB) leukemia
SW-620 colon = test system: SW-620 colon
DU-145 prostate = test system: DU-145 prostate
T-47D breast = test system: T-47D breast
HOP-92 NSCLC = test system: HOP-92 NSCLC
COLO 205 colon = test system: COLO 205 colon
HCT-15 colon = test system: HCT-15 colon
SNB-19 CNS = test system: SNB-19 CNS
OVCAR-3 ovarian = test system: OVCAR-3 ovarian
MDA-MB-231 breast = test system: MDA-MB-231 breast
HT29 colon = test system: HT29 colon
NCI-H226 lung = test system: NCI-H226 lung
NCI-H23 lung = test system: NCI-H23 lung
SF-295 CNS = test system: SF-295 CNS
NCI-H322M lung = test system: NCI-H322M lung
CAKI-1 renal = test system: CAKI-1 renal
SK-MEL-28 melanoma = test system: SK-MEL-28 melanoma
MDA-MB-468 breast = test system: MDA-MB-468 breast
786-0 renal = test system: 786-0 renal
MCF7 breast = test system: MCF7 breast
PC-3 prostate = test system: PC-3 prostate
MDA-MB-435 melanoma = test system: MDA-MB-435 melanoma
RPMI-8226 leukemia = test system: RPMI-8226 leukemia
M14 melanoma = test system: M14 melanoma
IGROV1 ovarian = test system: IGROV1 ovarian
OVCAR-4 ovarian = test system: OVCAR-4 ovarian
UACC-62 melanoma = test system: UACC-62 melanoma
HS 578T breast = test system: HS 578T breast
SK-OV-3 ovarian = test system: SK-OV-3 ovarian
NCI/ADR-RES ovarian = test system: NCI/ADR-RES ovarian
HCT-116 colon = test system: HCT-116 colon
SR leukemia = test system: SR leukemia
KM12 colon = test system: KM12 colon
LOX IMVI melanoma = test system: LOX IMVI melanoma
SF-539 CNS = test system: SF-539 CNS
TK-10 renal = test system: TK-10 renal
A549 NSCLC = test system: A549 NSCLC
K-562 leukemia = test system: K-562 leukemia
ACHN renal = test system: ACHN renal
RXF 393 renal = test system: RXF 393 renal
SK-MEL-5 melanoma = test system: SK-MEL-5 melanoma
EKVX NSCLC = test system: EKVX NSCLC
NCI-H522 lung = test system: NCI-H522 lung
A498 renal = test system: A498 renal
HOP-62 NSCLC = test system: HOP-62 NSCLC
UO-31 renal = test system: UO-31 renal
MALME-3M melanoma = test system: MALME-3M melanoma
OVCAR-8 ovarian = test system: OVCAR-8 ovarian
SF-268 CNS = test system: SF-268 CNS
HCC-2998 colon = test system: HCC-2998 colon
CCRF-CEM leukemia = test system: CCRF-CEM leukemia
BT-549 breast = test system: BT-549 breast
SN12C renal = test system: SN12C renal
UACC-257 melanoma = test system: UACC-257 melanoma

For `CC(C)S(=O)(=O)c1ccccc1Nc1nc(Nc2cccc(NC(=O)CN)c2)ncc1Cl`, the GI50 (SNB-75 CNS) was 23.8 nM, the TGI (SNB-75 CNS) was 189 nM and the GI50 (NCI-H460 NSCLC) was < 10 nM. The TGI (NCI-H460 NSCLC) was 335 nM, the GI50 (U251 glioblastoma) was 193 nM and the TGI (U251 glioblastoma) was 1600 nM. For the same molecule, the GI50 (HL-60(TB) leukemia) was < 10 nM, the TGI (HL-60(TB) leukemia) was < 10 nM and the GI50 (SW-620 colon) was 29.2 nM. It also gave a TGI (SW-620 colon) of 436 nM, a GI50 (DU-145 prostate) of 79.1 nM and a TGI (DU-145 prostate) of 1710 nM. The GI50 (T-47D breast) was 480 nM, the TGI (T-47D breast) was 3320 nM and the GI50 (HOP-92 NSCLC) was 135 nM. The TGI (HOP-92 NSCLC) was 463 nM, the GI50 (COLO 205 colon) was 19.4 nM and the TGI (COLO 205 colon) was 128 nM. The GI50 (HCT-15 colon) was 152 nM, the TGI (HCT-15 colon) was 1250 nM and the GI50 (SNB-19 CNS) was 141 nM. It also gave a TGI (SNB-19 CNS) of 6120 nM, a GI50 (OVCAR-3 ovarian) of 57.1 nM and a TGI (OVCAR-3 ovarian) of 290 nM. It also gave a GI50 (MDA-MB-231 breast) of 93.2 nM, a TGI (MDA-MB-231 breast) of 445 nM and a GI50 (HT29 colon) of 184 nM. For the same molecule, the TGI (HT29 colon) was 1160 nM, the GI50 (NCI-H226 lung) was 49.5 nM and the TGI (NCI-H226 lung) was 354 nM. It also gave a GI50 (NCI-H23 lung) of 107 nM, a TGI (NCI-H23 lung) of 247 nM and a GI50 (SF-295 CNS) of 89.1 nM. For the same molecule, the TGI (SF-295 CNS) was 11400 nM, the GI50 (NCI-H322M lung) was 389 nM and the TGI (NCI-H322M lung) was 1730 nM. It also gave a GI50 (CAKI-1 renal) of 124 nM, a TGI (CAKI-1 renal) of 866 nM and a GI50 (SK-MEL-28 melanoma) of 217 nM. It also gave a TGI (SK-MEL-28 melanoma) of 1290 nM, a GI50 (MDA-MB-468 breast) of 17.4 nM and a TGI (MDA-MB-468 breast) of 42 nM. It also gave a GI50 ([…]-0 renal) of 182 nM, a TGI (786-0 renal) of 2080 nM and a GI50 (MCF7 breast) of 30.1 nM. The TGI (MCF7 breast) was 685 nM, the GI50 (PC-3 prostate) was 237 nM and the TGI (PC-3 prostate) was 1490 nM. For the same molecule, the GI50 (MDA-MB-435 melanoma) was 168 nM, the TGI (MDA-MB-435 melanoma) was 1300 nM and the GI50 (RPMI-8226 leukemia) was 20.3 nM. For the same molecule, the TGI (RPMI-8226 leukemia) was 60.7 nM, the GI50 (M14 melanoma) was 17.7 nM and the TGI (M14 melanoma) was 493 nM. For the same molecule, the GI50 (IGROV1 ovarian) was 141 nM, the TGI (IGROV1 ovarian) was 383 nM and the GI50 (OVCAR-4 ovarian) was 377 nM. For the same molecule, the TGI (OVCAR-4 ovarian) was 2070 nM, the GI50 (UACC-62 melanoma) was 34.8 nM and the TGI (UACC-62 melanoma) was 213 nM. It also gave a GI50 (HS 578T breast) of 45.5 nM, a TGI (HS 578T breast) of 205 nM and a GI50 (SK-OV-3 ovarian) of 290 nM. The TGI (SK-OV-3 ovarian) was 7900 nM, the GI50 (NCI/ADR-RES ovarian) was 72.7 nM and the TGI (NCI/ADR-RES ovarian) was 1140 nM. The GI50 (HCT-116 colon) was < 10 nM, the TGI (HCT-116 colon) was 164 nM and the GI50 (SR leukemia) was < 10 nM. For the same molecule, the TGI (SR leukemia) was < 10 nM, the GI50 (KM12 colon) was 19.1 nM and the TGI (KM12 colon) was 474 nM. The GI50 (LOX IMVI melanoma) was 25.8 nM, the TGI (LOX IMVI melanoma) was 180 nM and the GI50 (SF-539 CNS) was 47.2 nM. It also gave a TGI (SF-539 CNS) of 216 nM, a GI50 (TK-10 renal) of 185 nM and a TGI (TK-10 renal) of 2560 nM. For the same molecule, the GI50 (A549 NSCLC) was 106 nM, the TGI (A549 NSCLC) was 7360 nM and the GI50 (K-562 leukemia) was 25 nM. It also gave a TGI (K-562 leukemia) of 242 nM, a GI50 (ACHN renal) of 200 nM and a TGI (ACHN renal) of 14700 nM. It also gave a GI50 (RXF 393 renal) of 21.4 nM, a TGI (RXF 393 renal) of 167 nM and a GI50 (SK-MEL-5 melanoma) of 56.3 nM. For the same molecule, the TGI (SK-MEL-5 melanoma) was 229 nM, the GI50 (EKVX NSCLC) was 150 nM and the TGI (EKVX NSCLC) was 1710 nM. It also gave a GI50 (NCI-H522 lung) of 77.1 nM, a TGI (NCI-H522 lung) of 622 nM and a GI50 (A498 renal) of 186 nM. It also gave a TGI (A498 renal) of 11400 nM, a GI50 (HOP-62 NSCLC) of 39.1 nM and a TGI (HOP-62 NSCLC) of 680 nM. For the same molecule, the GI50 (UO-31 renal) was 218 nM, the TGI (UO-31 renal) was 10700 nM and the GI50 (MALME-3M melanoma) was 399 nM. The TGI (MALME-3M melanoma) was 1560 nM, the GI50 (OVCAR-8 ovarian) was 87.5 nM and the TGI (OVCAR-8 ovarian) was 308 nM. For the same molecule, the GI50 (SF-268 CNS) was 30.7 nM, the TGI (SF-268 CNS) was 223 nM and the GI50 (HCC-2998 colon) was 187 nM. For the same molecule, the TGI (HCC-2998 colon) was 659 nM, the GI50 (CCRF-CEM leukemia) was < 10 nM and the TGI (CCRF-CEM leukemia) was < 10 nM. The GI50 (BT-549 breast) was 49.5 nM, the TGI (BT-549 breast) was 193 nM and the GI50 (SN12C renal) was 149 nM. For the same molecule, the TGI (SN12C renal) was 518 nM, the GI50 (UACC-257 melanoma) was 324 nM and the TGI (UACC-257 melanoma) was 1440 nM.

Source: PubChem BioAssay (NCI)
